Assay results published in paper PMC4395004 (Pharmaceutical research, 2013).

Experiment: PK study of P-S after topical
Assay type: in vivo, rat
Conditions: for Tmax: LEW/crlBR, rat, po, 50 mg/kg
[1] = oral gavage P-S 50 mg/kg single dose, blood
[2] = oral gavage P-S 50 mg/kg single dose, muscle
[3] = topical PSH, single dose P-S 50 mg/kg on both hind legs, muscle
[4] = topical PSH, single dose P-S 50 mg/kg, blood
[5] = topical PSH, single dose P-S 50 mg/kg, muscle

SMILES | Tmax (blood) | Tmax (muscle) | AUC0–24h, blood [1] | Cmax, blood [1] | AUC0–24h, muscle [2] | Cmax, muscle [2] | Cmax, muscle [3] | AUC0–24h, blood [4] | Cmax, blood [4] | AUC0–24h, muscle [5] | muscle Cmax (topical PSH, muscle) | Tmax, blood [1] | Tmax, muscle [2] | Tmax, blood [4] | Tmax, muscle [5]
CSc1ccc(/C=C2/C(C)=C(CC(=O)O)c3cc(F)ccc32)cc1 [S.sulfide, sulindac sulfide] | 8 h | 8 h | 156 (nmole/g)*h | 13 nmol/g | 158 (nmole/g)*h | 13 nmol/g | 2 nmol/g | 122 (nmole/g)*h | 10 nmol/g | 18 (nmole/g)*h | ≤ 31 nmole/g tissue | – | – | – | –
CC1=C(CC(=O)O)c2cc(F)ccc2/C1=C\c1ccc(S(C)(=O)=O)cc1 [S.sulfone, sulindac sulfone] | – | – | – | 52 nmol/g | 764 (nmole/g)*h | 40 nmol/g | 12 nmol/g | 400 (nmole/g)*h | 23 nmol/g | 170 (nmole/g)*h | ≤ 31 nmole/g tissue | 8 h | 8 h | 8 h | 24 h
CC1=C(CC(=O)O)c2cc(F)ccc2/C1=C\c1ccc([S+](C)[O-])cc1 (stereo not shown) [Sulindac, sulindac, reference compound] | 2 h | 8 h | 405 (nmole/g)*h | 33 nmol/g | 296 (nmole/g)*h | 20 nmol/g | 31 nmol/g | 245 (nmole/g)*h | 18 nmol/g | 399 (nmole/g)*h | ≤ 31 nmole/g tissue | – | – | – | –
